The record followed here is patent US20260201008A1, “SECRETIN-DERIVED GLP1R SELECTIVE AGONISTS” (GUBRA A/S, priority 2023, published 2026).

Molecules are shown by their SMILES. Like-named read-outs stand apart in the source and are kept apart here. Numbered stars: 1 amine (or outer) side, 2 acyl side, 3 side chain; on linkers, the order of the positions; unused ones are H or OH. Square brackets hold non-standard residues; d marks the D form. Side chains are listed from the residue outwards. Peptide text beside a SMILES is read from it. * marks the point of attachment. C20 diacid = O=C(O)CCCCCCCCCCCCCCCCCCC(=O)*; γGlu = O=C(O)[C@H](CCC(=O)[*:2])N[*:1]; AEEA = NCCOCCOCC(=O)O; Aib = CC(C)(N)C(=O)O

One data set has as its target SCTR (Homo sapiens, UniProt P47872). Briefly: hSCTR potency, cAMP accumulation in CHO-K1 cells stably overexpressing hSCTR. Format: cell-based. Also on record: alternatively Euroscreen ES-712-AF; FAST-0161L; host or cells: CHO-K1. To be noted: cAMP accumulation. In a few lines:
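Division-arrested CHO-K1 cells stably expressing hSCTR were plated in DPBS with 0.05% casein and 0.5 mM IBMX, then stimulated with test peptide for 30 min at room temperature. cAMP was read by HTRF after one hour. EC50 came from variable-slope sigmoidal nonlinear regression.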
A general note: cAMP levels reflect the balance of adenylyl cyclase and phosphodiesterase activity.

Another data set deals with GLP1R (Homo sapiens, UniProt P43220). In words: hGLP1R potency, cAMP accumulation in CHO-K1 cells stably overexpressing hGLP1R. It is filed as cell-based. More on the design: host or cells: CHO-K1. The conditions noted are these: for EC50: cAMP accumulation; for SCTR EC50/GLP1R EC50 ratio: cAMP accumulation in CHO-K1 cells. In a few lines:
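Cells were plated in DPBS with 0.05% casein and 0.5 mM IBMX, then stimulated for 30 min at room temperature with test compound. cAMP was read by TR-FRET after one hour. EC50 came from variable-slope sigmoid nonlinear regression; purified peptides ran as 11-point 3-fold series, n=2.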

Data set [1] is described as follows: Fibril formation of crude library peptides (Thioflavin T). The conditions noted are these: Physical stability of peptides. More on the design: key: average ThT fluorescence emission at 480 nm (ex 450 nm), raw units. It is filed as physicochemical. In a few lines: (§1)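 Values reflect mean ThT emission (ex 450, em 480 nm) over 72 h at 40° C, read every 10 min after 5 min shaking at 700 rpm, plus a single initial absorbance at 600 nm for turbidity. Peptides were at 267 μM, pH 4.0 acetate or pH 7.0 phosphate (50 mM), with 4 μM ThT.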

A short description of data set [2]: Turbidity of crude library peptides (absorbance at 600 nm). It is filed as physicochemical. The conditions noted are these: Physical stability of peptides. In a few lines:
as §1

The mark [3] stands for this setting: CHO-K1 cells overexpressing hSCTR, read-out: hSCTR pEC50 (converted).
[4] abbreviates: CHO-K1 cells overexpressing hGLP1R, read-out: hGLP1R pEC50 (converted).
[5] abbreviates: selectivity for hGLP1R over hSCTR.

Chain of GLP1R (P43220 24-463): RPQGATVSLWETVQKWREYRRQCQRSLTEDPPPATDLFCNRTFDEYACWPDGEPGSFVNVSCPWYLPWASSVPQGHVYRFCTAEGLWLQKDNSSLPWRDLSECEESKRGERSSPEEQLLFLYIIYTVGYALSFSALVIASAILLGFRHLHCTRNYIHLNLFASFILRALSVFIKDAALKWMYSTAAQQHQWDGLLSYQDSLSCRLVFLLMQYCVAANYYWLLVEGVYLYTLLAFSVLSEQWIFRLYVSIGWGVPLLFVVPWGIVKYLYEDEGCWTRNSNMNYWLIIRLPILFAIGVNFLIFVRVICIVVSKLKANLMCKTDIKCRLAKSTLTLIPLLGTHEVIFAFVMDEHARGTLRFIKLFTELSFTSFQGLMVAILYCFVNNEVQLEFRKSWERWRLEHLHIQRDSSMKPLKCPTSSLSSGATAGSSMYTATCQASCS
Chain of SCTR (P47872 23-440): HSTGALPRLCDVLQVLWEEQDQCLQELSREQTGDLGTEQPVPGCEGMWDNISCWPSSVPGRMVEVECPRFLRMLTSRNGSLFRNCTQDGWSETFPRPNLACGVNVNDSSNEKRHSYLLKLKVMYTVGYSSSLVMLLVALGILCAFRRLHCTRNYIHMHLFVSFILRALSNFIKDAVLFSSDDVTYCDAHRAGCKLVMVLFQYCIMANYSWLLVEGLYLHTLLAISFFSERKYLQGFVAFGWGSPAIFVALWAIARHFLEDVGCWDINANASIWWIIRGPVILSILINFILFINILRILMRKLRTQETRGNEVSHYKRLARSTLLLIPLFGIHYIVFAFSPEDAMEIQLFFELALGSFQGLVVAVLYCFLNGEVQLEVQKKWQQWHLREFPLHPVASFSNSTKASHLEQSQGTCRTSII

With `CC[C@H](C)[C@H](NC(=O)[C@H](Cc1ccccc1)NC(=O)[C@H](CCCNC(=N)N)NC(=O)[C@H](CCC(N)=O)NC(=O)[C@H](CC(C)C)NC(=O)[C@H](C)NC(=O)[C@H](C)NC(=O)CNC(=O)[C@H](CCC(=O)O)NC(=O)[C@H](CC(C)C)NC(=O)[C@H](CC(C)C)NC(=O)C(C)(C)NC(=O)[C@H](CO)NC(=O)[C@@H](NC(=O)[C@H](CC(=O)O)NC(=O)[C@H](CO)NC(=O)[C@@H](NC(=O)[C@H](Cc1ccccc1)NC(=O)[C@@H](NC(=O)CNC(=O)[C@H](CCC(=O)O)NC(=O)C(C)(C)NC(=O)[C@@H](N)Cc1c[nH]cn1)[C@@H](C)O)[C@@H](C)O)C(C)C)C(=O)N[C@@H](CCC(N)=O)C(=O)N[C@@H](Cc1c[nH]c2ccccc12)C(=O)N[C@@H](CC(C)C)C(=O)N[C@H](C(N)=O)C(C)C` [compound 179] (H-H[Aib]EGTFTSDVS[Aib]LLEGAALQRFIQWLV-NH2), the EC50 is 501 nM on SCTR (setting [3]) and 0.0794 nM on GLP1R (setting [4]). Further, the “SCTR EC50/GLP1R EC50 ratio” value at GLP1R (setting [5]) amounted to 5995. Also, the Fibril formation in data set [1] is 22028. In data set [2], the “Turbidity (pH 7)” value was 0.55.

Turning to `CC[C@H](C)[C@H](NC(=O)[C@H](Cc1ccccc1)NC(=O)[C@H](CCCNC(=N)N)NC(=O)[C@H](CCC(N)=O)NC(=O)[C@H](CC(C)C)NC(=O)[C@H](C)NC(=O)[C@H](C)NC(=O)CNC(=O)[C@H](CCC(=O)O)NC(=O)[C@H](CC(C)C)NC(=O)[C@H](CC(C)C)NC(=O)[C@H](CCC(=O)O)NC(=O)[C@H](CO)NC(=O)[C@@H](NC(=O)[C@H](CC(=O)O)NC(=O)[C@H](CO)NC(=O)[C@@H](NC(=O)[C@H](Cc1ccccc1)NC(=O)[C@@H](NC(=O)CNC(=O)[C@H](CCC(=O)O)NC(=O)C(C)(C)NC(=O)[C@@H](N)Cc1c[nH]cn1)[C@@H](C)O)[C@@H](C)O)C(C)C)C(=O)N[C@@H](CCC(N)=O)C(=O)N[C@@H](Cc1c[nH]c2ccccc12)C(=O)N[C@@H](CC(C)C)C(=O)N[C@H](C(N)=O)C(C)C` [compound 180] (H-H[Aib]EGTFTSDVSELLEGAALQRFIQWLV-NH2), the results for the EC50 at SCTR (setting [3]) and at GLP1R (setting [4]) were 200 nM and 0.0158 nM, respectively. The “SCTR EC50/GLP1R EC50 ratio” value on GLP1R (setting [5]) is 11144. Moreover, the Fibril formation in data set [1] is given as 53478. Moreover, the “Turbidity (pH 7)” value in data set [2] is reported as 0.12.

On to `CC[C@H](C)[C@H](NC(=O)[C@H](Cc1ccccc1)NC(=O)[C@H](CCCNC(=N)N)NC(=O)[C@H](CCC(N)=O)NC(=O)[C@H](CC(C)C)NC(=O)[C@H](C)NC(=O)[C@H](C)NC(=O)CNC(=O)[C@H](CCC(=O)O)NC(=O)[C@H](CC(C)C)NC(=O)[C@H](CC(C)C)NC(=O)[C@H](Cc1ccc(O)cc1)NC(=O)[C@H](CO)NC(=O)[C@@H](NC(=O)[C@H](CC(=O)O)NC(=O)[C@H](CO)NC(=O)[C@@H](NC(=O)[C@H](Cc1ccccc1)NC(=O)[C@@H](NC(=O)CNC(=O)[C@H](CCC(=O)O)NC(=O)C(C)(C)NC(=O)[C@@H](N)Cc1c[nH]cn1)[C@@H](C)O)[C@@H](C)O)C(C)C)C(=O)N[C@@H](CCC(N)=O)C(=O)N[C@@H](Cc1c[nH]c2ccccc12)C(=O)N[C@@H](CC(C)C)C(=O)N[C@H](C(N)=O)C(C)C` [compound 181] (H-H[Aib]EGTFTSDVSYLLEGAALQRFIQWLV-NH2), for which the EC50 was 200 nM at SCTR (setting [3]) and 0.0501 nM at GLP1R (setting [4]). For the same molecule, at GLP1R (setting [5]), the “SCTR EC50/GLP1R EC50 ratio” value is given as 4280. This molecule gave a Fibril formation in data set [1] of 257400. Also, the “Turbidity (pH 7)” value in data set [2] was found to be 0.69.

In the case of `CC[C@H](C)[C@H](NC(=O)[C@H](Cc1ccccc1)NC(=O)[C@H](CCCNC(=N)N)NC(=O)[C@H](CCC(N)=O)NC(=O)[C@H](CC(C)C)NC(=O)[C@H](C)NC(=O)[C@H](C)NC(=O)CNC(=O)[C@H](CCC(=O)O)NC(=O)[C@H](CC(C)C)NC(=O)[C@H](CC(C)C)NC(=O)CNC(=O)[C@H](CO)NC(=O)[C@@H](NC(=O)[C@H](CC(=O)O)NC(=O)[C@H](CO)NC(=O)[C@@H](NC(=O)[C@H](Cc1ccccc1)NC(=O)[C@@H](NC(=O)CNC(=O)[C@H](CCC(=O)O)NC(=O)C(C)(C)NC(=O)[C@@H](N)Cc1c[nH]cn1)[C@@H](C)O)[C@@H](C)O)C(C)C)C(=O)N[C@@H](CCC(N)=O)C(=O)N[C@@H](Cc1c[nH]c2ccccc12)C(=O)N[C@@H](CC(C)C)C(=O)N[C@H](C(N)=O)C(C)C` [compound 182] (H-H[Aib]EGTFTSDVSGLLEGAALQRFIQWLV-NH2), the EC50 on SCTR (setting [3]) was 158 nM; at GLP1R (setting [4]) it was 0.0501 nM. Besides, the “SCTR EC50/GLP1R EC50 ratio” value at GLP1R (setting [5]) is recorded as 2754. Moreover, the Fibril formation in data set [1] is recorded as 253106. Moreover, the “Turbidity (pH 7)” value in data set [2] stood at 0.40.

`CC[C@H](C)[C@H](NC(=O)[C@H](Cc1ccccc1)NC(=O)[C@H](CCCNC(=N)N)NC(=O)[C@H](CCC(N)=O)NC(=O)[C@H](CC(C)C)NC(=O)[C@H](C)NC(=O)[C@H](C)NC(=O)CNC(=O)[C@H](CCC(=O)O)NC(=O)[C@H](CC(C)C)NC(=O)[C@H](CC(C)C)NC(=O)[C@H](Cc1c[nH]c2ccccc12)NC(=O)[C@H](CO)NC(=O)[C@@H](NC(=O)[C@H](CC(=O)O)NC(=O)[C@H](CO)NC(=O)[C@@H](NC(=O)[C@H](Cc1ccccc1)NC(=O)[C@@H](NC(=O)CNC(=O)[C@H](CCC(=O)O)NC(=O)C(C)(C)NC(=O)[C@@H](N)Cc1c[nH]cn1)[C@@H](C)O)[C@@H](C)O)C(C)C)C(=O)N[C@@H](CCC(N)=O)C(=O)N[C@@H](Cc1c[nH]c2ccccc12)C(=O)N[C@@H](CC(C)C)C(=O)N[C@H](C(N)=O)C(C)C` [compound 183] (H-H[Aib]EGTFTSDVSWLLEGAALQRFIQWLV-NH2): the values for the EC50 at SCTR (setting [3]) and at GLP1R (setting [4]) were 158 nM and 0.0501 nM, respectively. Also, on GLP1R (setting [5]), the “SCTR EC50/GLP1R EC50 ratio” value was determined as 3127. The molecule further gave a Fibril formation in data set [1] of 172171. Moreover, the “Turbidity (pH 7)” value in data set [2] is given as 0.67.

On to `CC[C@H](C)[C@H](NC(=O)[C@H](Cc1ccccc1)NC(=O)[C@H](CCCNC(=N)N)NC(=O)[C@H](CCC(N)=O)NC(=O)[C@H](CC(C)C)NC(=O)[C@H](C)NC(=O)[C@H](C)NC(=O)CNC(=O)[C@H](CCC(=O)O)NC(=O)[C@H](CC(C)C)NC(=O)[C@H](CC(C)C)NC(=O)[C@@H](NC(=O)[C@H](CO)NC(=O)[C@@H](NC(=O)[C@H](CC(=O)O)NC(=O)[C@H](CO)NC(=O)[C@@H](NC(=O)[C@H](Cc1ccccc1)NC(=O)[C@@H](NC(=O)CNC(=O)[C@H](CCC(=O)O)NC(=O)C(C)(C)NC(=O)[C@@H](N)Cc1c[nH]cn1)[C@@H](C)O)[C@@H](C)O)C(C)C)C(C)C)C(=O)N[C@@H](CCC(N)=O)C(=O)N[C@@H](Cc1c[nH]c2ccccc12)C(=O)N[C@@H](CC(C)C)C(=O)N[C@H](C(N)=O)C(C)C` [compound 184] (H-H[Aib]EGTFTSDVSVLLEGAALQRFIQWLV-NH2), for which the EC50 was 251 nM on SCTR (setting [3]) and 0.0251 nM on GLP1R (setting [4]). Besides, the “SCTR EC50/GLP1R EC50 ratio” value at GLP1R (setting [5]) is given as 10252. Also, the Fibril formation in data set [1] was found to be 260000. Moreover, in data set [2], the “Turbidity (pH 7)” value worked out at 0.43.

For `CC(C)C[C@H](NC(=O)[C@H](Cc1ccc(O)cc1)NC(=O)[C@H](CO)NC(=O)[C@H](Cc1c[nH]c2ccccc12)NC(=O)[C@H](CC(=O)O)NC(=O)[C@H](CO)NC(=O)[C@@H](NC(=O)[C@H](Cc1ccccc1)NC(=O)[C@@H](NC(=O)CNC(=O)[C@H](CCC(=O)O)NC(=O)C(C)(C)NC(=O)[C@@H](N)Cc1c[nH]cn1)[C@@H](C)O)[C@@H](C)O)C(=O)N[C@@H](CCCCNC(=O)COCCOCCNC(=O)COCCOCCNC(=O)CC[C@H](NC(=O)CCCCCCCCCCCCCCCCCCC(=O)O)C(=O)O)C(=O)N[C@@H](CCC(=O)O)C(=O)N[C@@H](CCC(=O)O)C(=O)N[C@@H](C)C(=O)NC(C)(C)C(=O)N[C@@H](CC(C)C)C(=O)N[C@@H](CCC(N)=O)C(=O)N[C@@H](CCCNC(=N)N)C(=O)N[C@@H](Cc1ccccc1)C(=O)N[C@@H](CC(C)C)C(=O)N[C@@H](CCC(=O)O)C(=O)N[C@@H](Cc1c[nH]cn1)C(=O)N[C@@H](CC(C)C)C(=O)N[C@H](C(N)=O)C(C)C` [compound 185] (H-H[Aib]EGTFTSDWSYLK([AEEA-AEEA-γGlu-C20 diacid])EEA[Aib]LQRFLEHLV-NH2), the EC50 is 50.1 nM on SCTR (CHO-K1 cells stably overexpressing hSCTR, read-out: hSCTR potency (pEC50) (converted)) and 0.00631 nM at GLP1R (CHO-K1 cells stably overexpressing hGLP1R, read-out: hGLP1R potency (pEC50) (converted)). At GLP1R (selectivity ratio, hSCTR vs hGLP1R), the “SCTR EC50/GLP1R EC50 ratio” value is 7444. In data set [1], the Fibril formation was 4198. Also, the “Turbidity (pH 7)” value in data set [2] stood at 0.08.
